From the OligoGym collection
Oligonucleotides are given in HELM: sugar(base)linkage, 5' to 3'; d 2'-deoxyribose, r ribose, m 2'-O-methylribose, p phosphate. ss, as = sense and antisense strand

Target: SOST
Assay: reporter assay of Huesken 2005
Conditions: siRNA
Also: test concentration or dose not given here.

Substance	normalised inhibition (eCFP-eYFP dual reporter) [%]
RNA1{r(C)p.r(U)p.r(A)p.r(C)p.r(C)p.r(G)p.r(C)p.r(G)p.r(C)p.r(G)p.r(C)p.r(A)p.r(G)p.r(C)p.r(G)p.r(C)p.r(G)p.r(U)p.r(G)p.d(T)p.d(T)}|RNA2{r(C)p.r(A)p.r(C)p.r(G)p.r(C)p.r(G)p.r(C)p.r(U)p.r(G)p.r(C)p.r(G)p.r(C)p.r(G)p.r(C)p.r(G)p.r(G)p.r(U)p.r(A)p.r(G)p.d(C)p.d(G)}$$$RNA1{StrandType:ss}|RNA2{StrandType:as}$	50.5
RNA1{r(U)p.r(C)p.r(A)p.r(A)p.r(G)p.r(A)p.r(A)p.r(U)p.r(G)p.r(A)p.r(U)p.r(G)p.r(C)p.r(C)p.r(A)p.r(C)p.r(G)p.r(G)p.r(A)p.d(T)p.d(T)}|RNA2{r(U)p.r(C)p.r(C)p.r(G)p.r(U)p.r(G)p.r(G)p.r(C)p.r(A)p.r(U)p.r(C)p.r(A)p.r(U)p.r(U)p.r(C)p.r(U)p.r(U)p.r(G)p.r(A)p.d(A)p.d(C)}$$$RNA1{StrandType:ss}|RNA2{StrandType:as}$	68.7
RNA1{r(A)p.r(G)p.r(A)p.r(C)p.r(C)p.r(A)p.r(U)p.r(G)p.r(A)p.r(A)p.r(C)p.r(C)p.r(G)p.r(G)p.r(G)p.r(C)p.r(G)p.r(G)p.r(A)p.d(T)p.d(T)}|RNA2{r(U)p.r(C)p.r(C)p.r(G)p.r(C)p.r(C)p.r(C)p.r(G)p.r(G)p.r(U)p.r(U)p.r(C)p.r(A)p.r(U)p.r(G)p.r(G)p.r(U)p.r(C)p.r(U)p.d(T)p.d(G)}$$$RNA1{StrandType:ss}|RNA2{StrandType:as}$	78.8
RNA1{r(G)p.r(C)p.r(U)p.r(G)p.r(C)p.r(A)p.r(C)p.r(U)p.r(U)p.r(C)p.r(A)p.r(C)p.r(C)p.r(C)p.r(G)p.r(C)p.r(U)p.r(A)p.r(C)p.d(T)p.d(T)}|RNA2{r(G)p.r(U)p.r(A)p.r(G)p.r(C)p.r(G)p.r(G)p.r(G)p.r(U)p.r(G)p.r(A)p.r(A)p.r(G)p.r(U)p.r(G)p.r(C)p.r(A)p.r(G)p.r(C)p.d(T)p.d(C)}$$$RNA1{StrandType:ss}|RNA2{StrandType:as}$	75.4
RNA1{r(C)p.r(C)p.r(C)p.r(G)p.r(C)p.r(U)p.r(A)p.r(C)p.r(G)p.r(U)p.r(G)p.r(A)p.r(C)p.r(C)p.r(G)p.r(A)p.r(U)p.r(G)p.r(G)p.d(T)p.d(T)}|RNA2{r(C)p.r(C)p.r(A)p.r(U)p.r(C)p.r(G)p.r(G)p.r(U)p.r(C)p.r(A)p.r(C)p.r(G)p.r(U)p.r(A)p.r(G)p.r(C)p.r(G)p.r(G)p.r(G)p.d(T)p.d(G)}$$$RNA1{StrandType:ss}|RNA2{StrandType:as}$	77.6
RNA1{r(G)p.r(C)p.r(G)p.r(U)p.r(U)p.r(C)p.r(A)p.r(A)p.r(G)p.r(A)p.r(A)p.r(U)p.r(G)p.r(A)p.r(U)p.r(G)p.r(C)p.r(C)p.r(A)p.d(T)p.d(T)}|RNA2{r(U)p.r(G)p.r(G)p.r(C)p.r(A)p.r(U)p.r(C)p.r(A)p.r(U)p.r(U)p.r(C)p.r(U)p.r(U)p.r(G)p.r(A)p.r(A)p.r(C)p.r(G)p.r(C)p.d(C)p.d(T)}$$$RNA1{StrandType:ss}|RNA2{StrandType:as}$	93.4
RNA1{r(A)p.r(A)p.r(A)p.r(U)p.r(C)p.r(A)p.r(U)p.r(C)p.r(C)p.r(C)p.r(C)p.r(G)p.r(A)p.r(G)p.r(C)p.r(U)p.r(C)p.r(G)p.r(G)p.d(T)p.d(T)}|RNA2{r(C)p.r(C)p.r(G)p.r(A)p.r(G)p.r(C)p.r(U)p.r(C)p.r(G)p.r(G)p.r(G)p.r(G)p.r(A)p.r(U)p.r(G)p.r(A)p.r(U)p.r(U)p.r(U)p.d(C)p.d(C)}$$$RNA1{StrandType:ss}|RNA2{StrandType:as}$	49.8
RNA1{r(G)p.r(C)p.r(U)p.r(C)p.r(C)p.r(G)p.r(G)p.r(C)p.r(C)p.r(A)p.r(G)p.r(U)p.r(G)p.r(C)p.r(G)p.r(G)p.r(C)p.r(C)p.r(C)p.d(T)p.d(T)}|RNA2{r(G)p.r(G)p.r(G)p.r(C)p.r(C)p.r(G)p.r(C)p.r(A)p.r(C)p.r(U)p.r(G)p.r(G)p.r(C)p.r(C)p.r(G)p.r(G)p.r(A)p.r(G)p.r(C)p.d(A)p.d(C)}$$$RNA1{StrandType:ss}|RNA2{StrandType:as}$	53
RNA1{r(A)p.r(C)p.r(A)p.r(A)p.r(C)p.r(A)p.r(A)p.r(G)p.r(A)p.r(C)p.r(C)p.r(A)p.r(U)p.r(G)p.r(A)p.r(A)p.r(C)p.r(C)p.r(G)p.d(T)p.d(T)}|RNA2{r(C)p.r(G)p.r(G)p.r(U)p.r(U)p.r(C)p.r(A)p.r(U)p.r(G)p.r(G)p.r(U)p.r(C)p.r(U)p.r(U)p.r(G)p.r(U)p.r(U)p.r(G)p.r(U)p.d(T)p.d(C)}$$$RNA1{StrandType:ss}|RNA2{StrandType:as}$	52.2
RNA1{r(G)p.r(A)p.r(C)p.r(G)p.r(U)p.r(G)p.r(U)p.r(C)p.r(C)p.r(G)p.r(A)p.r(G)p.r(U)p.r(A)p.r(C)p.r(A)p.r(G)p.r(C)p.r(U)p.d(T)p.d(T)}|RNA2{r(A)p.r(G)p.r(C)p.r(U)p.r(G)p.r(U)p.r(A)p.r(C)p.r(U)p.r(C)p.r(G)p.r(G)p.r(A)p.r(C)p.r(A)p.r(C)p.r(G)p.r(U)p.r(C)p.d(T)p.d(T)}$$$RNA1{StrandType:ss}|RNA2{StrandType:as}$	75.8
RNA1{r(G)p.r(U)p.r(G)p.r(C)p.r(C)p.r(G)p.r(C)p.r(A)p.r(G)p.r(C)p.r(G)p.r(C)p.r(C)p.r(A)p.r(A)p.r(G)p.r(C)p.r(C)p.r(G)p.d(T)p.d(T)}|RNA2{r(C)p.r(G)p.r(G)p.r(C)p.r(U)p.r(U)p.r(G)p.r(G)p.r(C)p.r(G)p.r(C)p.r(U)p.r(G)p.r(C)p.r(G)p.r(G)p.r(C)p.r(A)p.r(C)p.d(G)p.d(G)}$$$RNA1{StrandType:ss}|RNA2{StrandType:as}$	49.6
RNA1{r(C)p.r(A)p.r(A)p.r(G)p.r(U)p.r(G)p.r(G)p.r(U)p.r(G)p.r(G)p.r(C)p.r(G)p.r(A)p.r(C)p.r(C)p.r(U)p.r(A)p.r(G)p.r(U)p.d(T)p.d(T)}|RNA2{r(A)p.r(C)p.r(U)p.r(A)p.r(G)p.r(G)p.r(U)p.r(C)p.r(G)p.r(C)p.r(C)p.r(A)p.r(C)p.r(C)p.r(A)p.r(C)p.r(U)p.r(U)p.r(G)p.d(C)p.d(C)}$$$RNA1{StrandType:ss}|RNA2{StrandType:as}$	64.5
RNA1{r(G)p.r(G)p.r(A)p.r(C)p.r(U)p.r(U)p.r(C)p.r(G)p.r(G)p.r(G)p.r(A)p.r(C)p.r(C)p.r(G)p.r(A)p.r(G)p.r(G)p.r(C)p.r(C)p.d(T)p.d(T)}|RNA2{r(G)p.r(G)p.r(C)p.r(C)p.r(U)p.r(C)p.r(G)p.r(G)p.r(U)p.r(C)p.r(C)p.r(C)p.r(G)p.r(A)p.r(A)p.r(G)p.r(U)p.r(C)p.r(C)p.d(T)p.d(T)}$$$RNA1{StrandType:ss}|RNA2{StrandType:as}$	53.8
RNA1{r(A)p.r(G)p.r(U)p.r(G)p.r(G)p.r(U)p.r(G)p.r(G)p.r(C)p.r(G)p.r(A)p.r(C)p.r(C)p.r(U)p.r(A)p.r(G)p.r(U)p.r(G)p.r(G)p.d(T)p.d(T)}|RNA2{r(C)p.r(C)p.r(A)p.r(C)p.r(U)p.r(A)p.r(G)p.r(G)p.r(U)p.r(C)p.r(G)p.r(C)p.r(C)p.r(A)p.r(C)p.r(C)p.r(A)p.r(C)p.r(U)p.d(T)p.d(G)}$$$RNA1{StrandType:ss}|RNA2{StrandType:as}$	78.9
RNA1{r(G)p.r(G)p.r(A)p.r(C)p.r(C)p.r(G)p.r(A)p.r(G)p.r(G)p.r(C)p.r(C)p.r(G)p.r(C)p.r(U)p.r(C)p.r(G)p.r(G)p.r(C)p.r(C)p.d(T)p.d(T)}|RNA2{r(G)p.r(G)p.r(C)p.r(C)p.r(G)p.r(A)p.r(G)p.r(C)p.r(G)p.r(G)p.r(C)p.r(C)p.r(U)p.r(C)p.r(G)p.r(G)p.r(U)p.r(C)p.r(C)p.d(C)p.d(G)}$$$RNA1{StrandType:ss}|RNA2{StrandType:as}$	50.7
RNA1{r(C)p.r(G)p.r(U)p.r(G)p.r(U)p.r(A)p.r(G)p.r(U)p.r(G)p.r(G)p.r(A)p.r(G)p.r(G)p.r(G)p.r(C)p.r(C)p.r(A)p.r(G)p.r(G)p.d(T)p.d(T)}|RNA2{r(C)p.r(C)p.r(U)p.r(G)p.r(G)p.r(C)p.r(C)p.r(C)p.r(U)p.r(C)p.r(C)p.r(A)p.r(C)p.r(U)p.r(A)p.r(C)p.r(A)p.r(C)p.r(G)p.d(G)p.d(A)}$$$RNA1{StrandType:ss}|RNA2{StrandType:as}$	60.7
RNA1{r(A)p.r(C)p.r(G)p.r(U)p.r(G)p.r(U)p.r(C)p.r(C)p.r(G)p.r(A)p.r(G)p.r(U)p.r(A)p.r(C)p.r(A)p.r(G)p.r(C)p.r(U)p.r(G)p.d(T)p.d(T)}|RNA2{r(C)p.r(A)p.r(G)p.r(C)p.r(U)p.r(G)p.r(U)p.r(A)p.r(C)p.r(U)p.r(C)p.r(G)p.r(G)p.r(A)p.r(C)p.r(A)p.r(C)p.r(G)p.r(U)p.d(C)p.d(T)}$$$RNA1{StrandType:ss}|RNA2{StrandType:as}$	74.9
RNA1{r(G)p.r(C)p.r(C)p.r(A)p.r(G)p.r(G)p.r(G)p.r(G)p.r(U)p.r(G)p.r(G)p.r(C)p.r(A)p.r(G)p.r(G)p.r(C)p.r(G)p.r(U)p.r(U)p.d(T)p.d(T)}|RNA2{r(A)p.r(A)p.r(C)p.r(G)p.r(C)p.r(C)p.r(U)p.r(G)p.r(C)p.r(C)p.r(A)p.r(C)p.r(C)p.r(C)p.r(C)p.r(U)p.r(G)p.r(G)p.r(C)p.d(C)p.d(C)}$$$RNA1{StrandType:ss}|RNA2{StrandType:as}$	77.7
RNA1{r(G)p.r(U)p.r(A)p.r(G)p.r(U)p.r(G)p.r(G)p.r(A)p.r(G)p.r(G)p.r(G)p.r(C)p.r(C)p.r(A)p.r(G)p.r(G)p.r(G)p.r(G)p.r(U)p.d(T)p.d(T)}|RNA2{r(A)p.r(C)p.r(C)p.r(C)p.r(C)p.r(U)p.r(G)p.r(G)p.r(C)p.r(C)p.r(C)p.r(U)p.r(C)p.r(C)p.r(A)p.r(C)p.r(U)p.r(A)p.r(C)p.d(A)p.d(C)}$$$RNA1{StrandType:ss}|RNA2{StrandType:as}$	63.5
RNA1{r(A)p.r(A)p.r(C)p.r(A)p.r(A)p.r(G)p.r(A)p.r(C)p.r(C)p.r(A)p.r(U)p.r(G)p.r(A)p.r(A)p.r(C)p.r(C)p.r(G)p.r(G)p.r(G)p.d(T)p.d(T)}|RNA2{r(C)p.r(C)p.r(C)p.r(G)p.r(G)p.r(U)p.r(U)p.r(C)p.r(A)p.r(U)p.r(G)p.r(G)p.r(U)p.r(C)p.r(U)p.r(U)p.r(G)p.r(U)p.r(U)p.d(G)p.d(T)}$$$RNA1{StrandType:ss}|RNA2{StrandType:as}$	69.7
